Holding throughout (type): cell-based
Assay [1] deals with Q30R in genotype 1a NS5A, 1a Rluc replicon transfected into Huh-7 cured-51 cells. Kind of assay: HCV replicon assay, resistance mutant 1a Q30R. As to conditions: Hepatitis C virus, Huh-7, read-out: 1a Q30R. As to the method: Evaluation of cell-based anti-HCV activity: Antiviral potency (EC50) was determined using a Renilla luciferase (RLuc)-based HCV replicon reporter assay. To perform the assay for genotype 1 and 2a JFH-1, HCV 1b RLuc cells (harboring a dicistronic genotype 1b Con1 replicon that encodes a RLuc reporter), or HCV 1a RLuc cells (harboring a dicistronic genotype 1a H77 replicon that encodes a RLuc reporter), or HCV 2a JFH-1 Rluc cells (harboring a dicistronic genotype 2a JFH-1 replicon that encodes a RLuc reporter) were dispensed into 384-well plates. To perform the assay for genotype 2a (with M31 present) or 2b, HCV 2a Rluc or 2b Rluc cells (both with M31 present) harboring a dicistronic NS5A chimeric genotype 2a JFH-1 replicon that encodes a RLuc reporter and either genotype 2a J6 strain NS5A gene or genotype 2b MD2b-1 NS5A gene (based on Los Alamos HCV database isolates, both with M31 present) respectively, were dispensed into 384-well plates. To perform the assay for genotype 3 and 4, HCV 3a RLuc or 4a Rluc cells harboring a dicistronic NS5A chimeric genotype 1b Con1 replicon that encodes a RLuc reporter and either a consensus genotype 3a NS5A gene or genotype 4a NS5A gene (based on Los Alamos HCV database isolates) respectively, were dispensed into 384-well plates. Compounds were re-suspended in DMSO at a concentration of 10 mM and serially diluted in DMSO either manually or using an automated pipeting instrument. Serially diluted compounds were mixed with cell culture media and added to the seeded cells. […] 72 hours later, cells were lysed and Renilla luciferase activity quantified as recommended by the manufacturer (Promega-Madison, Wis.). Non-linear regression was performed to calculate EC50 values.
To determine the antiviral potency (EC50) against resistance mutants, resistance mutations, including M28T, Q30R, Q30H, L31M, and Y93C in genotype 1a NS5A and Y93H in genotype 1b NS5A, were introduced individually into either 1a Rluc or 1b Rluc replicons described above by site directed mutagenesis. Replicon RNA of each resistant mutant was transfected into Huh-7 cured-51 cells and antiviral potency was determined on these transfected cells as described above.

The subject of assay [2] is HCV 2a Rluc cells (NS5A chimeric genotype 2a JFH-1 replicon with genotype 2a J6 strain NS5A gene, M31 present). The experiment in a line: HCV replicon reporter assay, genotype 2a J6 (M31 present). Particulars: Hepatitis C virus, read-out: 2a J6. In short, it runs like this: (§1)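 Replicons used: genotype 1b Con1, 1a H77, 2a JFH-1, and a 2a JFH-1 chimera with J6-strain NS5A (M31 present), all dicistronic.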
(In general: Replicon systems follow genome replication, usually without infectious particles.)

The subject of assay [3] is HCV 3a RLuc cells (NS5A chimeric genotype 1b Con1 replicon with consensus genotype 3a NS5A gene). Kind of assay: microbe, parasite or virus in culture. As to conditions: Hepatitis C virus. In short, it runs like this:
(§2)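 Replicon cells stably carrying the listed RLuc-encoding dicistronic replicons were seeded and treated with DMSO serial dilutions of compound (10 mM stocks) diluted into culture medium. After 72 h, cells were lysed and Renilla luciferase activity measured. EC50 was derived by non-linear regression.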

Assay [4] relates to HCV 2a JFH-1 Rluc cells (dicistronic genotype 2a JFH-1 replicon, RLuc reporter). The experiment in a line: microbe, parasite or virus in culture. Particulars: Hepatitis C virus, read-out: 2a JFH. In short, it runs like this:
as §1

The subject of assay [5] is HCV 1a RLuc cells (dicistronic genotype 1a H77 replicon, RLuc reporter). Kind of assay: microbe, parasite or virus in culture. As to conditions: Hepatitis C virus, read-out: 1a. Summed up: as §1
Assay [6] has as its system HCV 1b RLuc cells (dicistronic genotype 1b Con1 replicon, RLuc reporter). Kind of assay: microbe, parasite or virus in culture. Particulars: Hepatitis C virus, read-out: 1b (nM). In short, it runs like this:
as §1

In assay [7] the test system is HCV 4a Rluc cells (NS5A chimeric genotype 1b Con1 replicon with genotype 4a NS5A gene). The experiment in a line: microbe, parasite or virus in culture. Particulars: Hepatitis C virus, read-out: 4a. In short, it runs like this: as §2
Assay [8] has as its system HCV 2b Rluc cells (NS5A chimeric genotype 2a JFH-1 replicon with genotype 2b MD2b-1 NS5A gene, M31 present). Kind of assay: microbe, parasite or virus in culture. Particulars: Hepatitis C virus, read-out: 2b. Summed up: as §2
[9] abbreviates: read-out: 3a, genotype 3a NS5A chimeric replicon.
Where [10] appears, read: genotype 2a JFH-1 RLuc replicon.

Each structure is given as a SMILES string. pEC50: −log10 of the molar value. Where two headings read alike, the source gives them in different places. Some results are limits rather than exact numbers.

For the compound `COC(=O)N[C@H](C(=O)N1CCC[C@H]1c1nc(Cl)c(-c2cc3c4c(c2)OCc2cc(-c5[nH]c([C@@H]6CCCN6C(=O)[C@@H](NC(=O)OC)C(C)C)nc5Cl)cc(c2-4)OC3)[nH]1)C(C)C` [Example 384], the pEC50 is 7.36 to 9.00 in assay [1]; 7.36 to 9.00 in assay [2]; 9.00 to 12.00 in assay [3] (read-out: 3a, genotype 3a replicon); 9.00 to 12.00 in assay [4] (genotype 2a JFH-1 replicon); 9.00 to 12.00 in assay [5] (genotype 1a replicon); 9.00 to 12.00 in assay [7]. In addition, the EC50 in assay [6] was found to be 0.013 nM.
As to `COC(=O)N[C@H](C(=O)N1C[C@@H](C)C[C@H]1c1ncc(-c2cc3c4c(c2)OCc2cc(-c5cnc([C@@H]6C[C@H](C)CN6C(=O)[C@H](NC(=O)C6C(C)(C)C6(C)C)c6ccccc6)[nH]5)cc(c2-4)OC3)[nH]1)C(C)C` [Example 577], the pEC50 was less than 7.36 in assay [2]; 9.00 to 12.00 in assay [3] (setting [9]); 9.00 to 12.00 in assay [4] (setting [10]); 9.00 to 12.00 in assay [5] (genotype 1a H77 RLuc replicon); 7.36 to 9.00 in assay [8]; 9.00 to 12.00 in assay [7]. Besides, the EC50 in assay [6] was 0.017 nM.
On to `COC[C@H]1CC[C@@H](c2ncc(-c3cc4c5c(c3)OCc3cc(-c6cnc([C@@H]7CC[C@H](COC)N7C(=O)[C@@H](NC(=O)OC)C(C)C)[nH]6)cc(c3-5)OC4)[nH]2)N1C(=O)[C@@H](NC(=O)OC)C(C)C` [Example 578], for which the pEC50 in assay [2] is less than 7.36; in assay [3] (setting [9]) it was 9.00 to 12.00; in assay [4] (setting [10]), 9.00 to 12.00; in assay [5] (genotype 1a H77 RLuc replicon), 9.00 to 12.00; in assay [8], less than 7.36; in assay [7], 9.00 to 12.00. For the same compound, the EC50 in assay [6] was determined as 0.022 nM.
For the compound `CCS[C@H]1C[C@@H](c2nc3ccc4cc(-c5ccc6c(ccc7nc([C@@H]8C[C@H](COC)CN8C(=O)[C@H](NC(=O)OC)c8ccccc8)[nH]c76)c5)ccc4c3[nH]2)N(C(=O)[C@@H](NC(=O)OC)C(C)C)C1` [Example 583], the pEC50 in assay [2], in assay [3] (setting [9]), in assay [4] (setting [10]), in assay [5] (genotype 1a H77 RLuc replicon), in assay [8] and in assay [7] was 9.00 to 12.00 each time. Further, the EC50 in assay [6] is 0.018 nM.
As to `COC[C@H]1C[C@@H](c2ncc(-c3ccc(-c4ccc(-c5cnc([C@@H]6CC[C@H](C)N6C(=O)[C@@H](NC(=O)OC)C(C)C)[nH]5)cc4)cc3)[nH]2)N(C(=O)[C@H](NC(=O)C2CC2)c2ccccc2)C1` [Example 591], the pEC50 in assay [2], in assay [3] (setting [9]), in assay [4] (setting [10]), in assay [5] (genotype 1a H77 RLuc replicon), in assay [8] and in assay [7] was 9.00 to 12.00 in each case. Besides, the EC50 in assay [6] was 0.016 nM.
With `COC[C@H]1C[C@@H](c2ncc(-c3cc4c5c(c3)OCc3cc(-c6cnc([C@@H]7CC[C@H](C)N7C(=O)[C@@H](NC(=O)OC)C(C)C)[nH]6)cc(c3-5)OC4)[nH]2)N(C(=O)[C@@H](NC(=O)OC)C(C)C)C1` [Example 595], the pEC50 was less than 7.36 in assay [2]; 9.00 to 12.00 in assay [3] (setting [9]); 9.00 to 12.00 in assay [4] (setting [10]); 9.00 to 12.00 in assay [5] (genotype 1a H77 RLuc replicon); 7.36 to 9.00 in assay [8]; 9.00 to 12.00 in assay [7]. For the same compound, in assay [6], the EC50 is 0.02 nM.
Turning to `COC[C@H]1C[C@@H](c2nc3ccc4cc(-c5ccc6c(ccc7nc([C@@H]8CCCN8C(=O)[C@@H](NC(=O)OC)C(C)C)[nH]c76)c5)ccc4c3[nH]2)N(C(=O)[C@H](N)c2ccccc2)C1` [Example 598], the pEC50 in assay [1], in assay [2], in assay [4] (setting [10]), in assay [5] (genotype 1a H77 RLuc replicon) and in assay [8] was 9.00 to 12.00 each time. Also, the EC50 in assay [6] turned out to be 0.022 nM.
On to `COC[C@H]1C[C@@H](c2ncc(-c3ccc4c(c3)COc3cc5c(ccc6nc([C@@H]7CC[C@H](C)N7C(=O)[C@@H](NC(=O)OC)C(C)C)[nH]c65)cc3-4)[nH]2)N(C(=O)[C@H](NC(=O)OC)c2ccccc2)C1` [Example 599], for which the pEC50 in assay [1], in assay [2], in assay [3] (setting [9]), in assay [4] (setting [10]), in assay [5] (genotype 1a H77 RLuc replicon) and in assay [8] was 9.00 to 12.00 in each case.
`COC[C@H]1C[C@@H](c2ncc(-c3ccc4c(c3)COc3cc5c(ccc6nc([C@@H]7CC[C@H](C)N7C(=O)[C@@H](NC(=O)OC)C(C)C)[nH]c65)cc3-4)[nH]2)N(C(=O)[C@@H](NC(=O)OC)C(C)C)C1` [Example 600]: the pEC50 in assay [1], in assay [2], in assay [4] (setting [10]), in assay [5] (genotype 1a H77 RLuc replicon) and in assay [8] was 9.00 to 12.00 in each case. In assay [6], the EC50 came out at 0.007 nM.
Take `COC(=O)N[C@H](C(=O)N1[C@@H](C)CC[C@H]1c1ncc(-c2ccc3c(c2)COc2cc4c(ccc5nc([C@@H]6CCCN6C(=O)[C@@H](NC(=O)OC)[C@@H](C)OC)[nH]c54)cc2-3)[nH]1)C(C)C` [Example 603]: the pEC50 in assay [1], in assay [2], in assay [3] (setting [9]), in assay [4] (setting [10]), in assay [5] (genotype 1a H77 RLuc replicon) and in assay [8] was 9.00 to 12.00 in each case.
In the case of `COC[C@H]1C[C@@H](c2ncc(-c3ccc4c(c3)COc3cc5c(cc3-4)CCc3nc([C@@H]4CC[C@H](C)N4C(=O)[C@@H](NC(=O)OC)C(C)C)[nH]c3-5)[nH]2)N(C(=O)[C@H](NC(=O)OC)c2ccccc2)C1` [Example 608], the pEC50 in assay [1], in assay [2], in assay [4] (setting [10]), in assay [5] (genotype 1a H77 RLuc replicon) and in assay [8] was 9.00 to 12.00 throughout. The EC50 in assay [6] was 0.017 nM.
On to `COC(=O)N[C@H](C(=O)N1[C@@H](C)CC[C@H]1c1nc2ccc3cc4c(cc3c2[nH]1)OCc1cc(-c2cnc([C@@H]3C[C@H](C)CN3C(=O)[C@@H](NC(=O)OC)[C@@H](C)OC)[nH]2)ccc1-4)C(C)C` [Example 612], for which the pEC50 in assay [1], in assay [2], in assay [3] (setting [9]), in assay [4] (setting [10]), in assay [5] (genotype 1a H77 RLuc replicon) and in assay [8] was 9.00 to 12.00 each time.
As to `COC(=O)N[C@H](C(=O)N1C[C@@H](C)C[C@H]1c1ncc(-c2ccc3c(c2)COc2cc4c(ccc5nc([C@@H]6CC[C@H](C)N6C(=O)[C@@H](NC(=O)OC)C(C)C)[nH]c54)cc2-3)[nH]1)C(C)C` [Example 613], the pEC50 in assay [1], in assay [2], in assay [3] (setting [9]), in assay [4] (setting [10]), in assay [5] (genotype 1a H77 RLuc replicon) and in assay [8] was 9.00 to 12.00 each time.
Take `COC[C@H]1C[C@@H](c2nc3c([nH]2)-c2cc4c(cc2CC3)-c2ccc(-c3cnc([C@@H]5CC[C@H](C)N5C(=O)[C@@H](NC(=O)OC)C(C)C)[nH]3)cc2CO4)N(C(=O)[C@H](NC(=O)OC)c2ccccc2)C1` [Example 614]: the pEC50 in assay [1], in assay [2], in assay [3] (setting [9]), in assay [4] (setting [10]), in assay [5] (genotype 1a H77 RLuc replicon) and in assay [8] was 9.00 to 12.00 in each case.

For the origin of these results see patent US10344019B2 (priority 2010, dated 2019).
